Laboratory results from PubChem BioAssay (NCI).
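A five-concentration, 48-hour dose response in 96-well plates underlies each endpoint, interpolated linearly between surrounding concentrations. GI50 marks 50% less growth. The concentration for full growth arrest is given as TGI.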

Tests used:
Test in all cases: NCI anticancer screen, dose series, 48 h
SF-268 CNS = system: SF-268 CNS
SK-MEL-5 melanoma = system: SK-MEL-5 melanoma
A498 renal = system: A498 renal
HCT-15 colon = system: HCT-15 colon
OVCAR-8 ovarian = system: OVCAR-8 ovarian
NCI-H226 lung = system: NCI-H226 lung
HCT-116 colon = system: HCT-116 colon
CAKI-1 renal = system: CAKI-1 renal
MCF7 breast = system: MCF7 breast
HOP-92 NSCLC = system: HOP-92 NSCLC

| Structure (SMILES) | GI50 (SF-268 CNS) | TGI (SF-268 CNS) | GI50 (SK-MEL-5 melanoma) | TGI (SK-MEL-5 melanoma) | GI50 (A498 renal) | TGI (A498 renal) | GI50 (HCT-15 colon) | TGI (HCT-15 colon) | GI50 (OVCAR-8 ovarian) | TGI (OVCAR-8 ovarian) | GI50 (NCI-H226 lung) | TGI (NCI-H226 lung) | GI50 (HCT-116 colon) | TGI (HCT-116 colon) | GI50 (CAKI-1 renal) | TGI (CAKI-1 renal) | GI50 (MCF7 breast) | TGI (MCF7 breast) | GI50 (HOP-92 NSCLC) | TGI (HOP-92 NSCLC) |
| --- | --- | --- | --- | --- | --- | --- | --- | --- | --- | --- | --- | --- | --- | --- | --- | --- | --- | --- | --- | --- |
| Cc1c2c[n+](C(C)C)ccc2c(C)c2c1[nH]c1ccccc12 | 0.475 µM | 14.9 µM | 1.5 µM | 3.89 µM | 1.94 µM | 64 µM | 52.1 µM | > 100 µM | 1.46 µM | 32.1 µM | 4.32 µM | 41.5 µM | 4.36 µM | 68.2 µM | > 100 µM | > 100 µM | 1.85 µM | 14.8 µM | 1.86 µM | 6.95 µM |
| C#Cc1c(C(N)=O)ncn1C1OC(COP(=O)(OCc2ccc([N+](=O)[O-])o2)N(C)CCCCCl)C(O)C1O (stereo not given) | 45.1 µM | > 100 µM | 2.83 µM | 26.5 µM | 39.6 µM | > 100 µM | 31.3 µM | > 100 µM | 9.91 µM | > 100 µM | > 100 µM | > 100 µM | 38.2 µM | > 100 µM | 47.9 µM | > 100 µM | 20.1 µM | > 100 µM | 51.2 µM | > 100 µM |
| CO[C@@H]1CC(=O)C2(CC(=O)O[C@@H]2/C=C(\C)CCC=C(C)C)C[C@@H]1O (stereo not given in full) | 1.18 µM | 4.74 µM | 0.913 µM | 2.13 µM | 1.66 µM | 4.63 µM | 0.56 µM | 1.55 µM | 1.32 µM | > 10.5 µM | 0.755 µM | 2.05 µM | 0.489 µM | 1.14 µM | 0.87 µM | 2.74 µM | 0.199 µM | 1.17 µM | 0.84 µM | 2.97 µM |
| COc1ccc2c(c1)C(=O)/C(=C/c1ncc([N+](=O)[O-])n1C)O2 | 0.421 µM | 2.1 µM | 0.207 µM | 0.552 µM | 1.42 µM | 2.98 µM | 0.221 µM | 0.629 µM | 0.261 µM | 2.81 µM | 2.09 µM | 5.3 µM | 0.176 µM | 0.48 µM | 0.23 µM | 0.617 µM | 0.32 µM | 7.98 µM | 1.23 µM | 4.51 µM |
| CC(=O)O/N=C1/C(c2c(O)[nH]c3cc(Br)ccc23)=Nc2ccccc21 | 1.62 µM | 3.78 µM | 0.524 µM | 1.33 µM | 0.429 µM | 1.2 µM | 0.962 µM | 2.72 µM | 1.59 µM | 4.53 µM | 1.45 µM | 4.74 µM | 1.05 µM | 2.67 µM | 0.275 µM | 2.04 µM | 1.93 µM | 5.98 µM | 1.93 µM | 5.35 µM |
